In article PMC7531004, “Discovery of gramicidin A analogues with altered activities by multidimensional screening of a one-bead-one-compound library” (Nature Communications, 2020):
Where “and” joins values, the source holds several entries; their conditions need not be identical. Identical values can stand only once. Like-named read-outs stand apart in the source and are kept apart here. Where a SMILES comes first, the peptide text is derived from it. [ ]: non-standard residue; d: D form. The star is where a group is joined. NHCH2CH2OH = OCCN*; For = O=C*

Columns and labels:
rabbit red blood cells = details: red cells of rabbit, 2 h
Protocol: (§1) Second, we examined the cytotoxicity toward mammalian cancer cells and hemolytic activity of 1. […] Hemolytic activity was evaluated by monitoring hemoglobin leakage from rabbit red blood cells as a consequence of membrane damage. The concentration of 1 required to cause 10% hemoglobin leakage (HC10) was 160 nM. Thus, the P388 cytotoxicity of 1 was 28-fold more sensitive than its hemolytic activity.
Hemolysis assay of purified peptides. […]
with DMSO to various concentrations as 3-fold serial dilution. A 50% suspension of rabbit blood in Alsever's solution was obtained from Nippon Bio -Supp. Center . The blood suspension (250 µL) w as diluted with phosphate buffered saline (no calcium, no magnesium, 1.00 mL). The resultant suspension was centrifuged at 1000 × g for 3 min at 8 °C. The supernatant was discarded, and the collected cells were resuspended in phosphate buffered saline (no calcium, no magnesium, 1.00 mL). The same procedure was repeated (× 3). The resultant suspension (100 µL) was diluted with phosphate buffered saline (no calcium, no magnesium, 4.90 mL) to give 0.2% red blood cells suspension. The 0.2% red blood cells suspension (95.0 µL) and each dilution series of the purified peptide in DMSO (5 .0 µL) were mixed in 2 mL microtube.
supernatant was transferred to a 96-well plate (TR5003, TrueLine). The absorbance of each well at 415 nm was measured using a Thermo Scientific Multiskan GO (Thermo Fisher Scientific). The mixture of Triton X-100/H2O (5/95, 2.0 µL), DMSO (5.0 µL), and the 0.2% red blood cells suspension (95.0 µL) was used to determine 100% hemolysis. The mixture of DMSO (5.0 µL) and the 0.2% red blood cells suspension (95.0 µL) was used to determine 0% hemolysis. The hemolytic activities of tested peptides ( I) were normalized against 100% hemolysis by Triton X -100 (Imax) and 0% hemolysis by DMSO (I0) according to Supplementary Equation 3, where Ix is the UV absorbance.
I = 100 × (Ix – I0) / (Imax – I0) (3)
The hemolytic activities of the purified peptides were evaluated as the concentrations causing 10% hemolysis (HC10, nM) by means of three replicates. Sigmoidal curve fittings were performed on GraphPad Prism (GraphPad software, Supplementary Figure 7).

[1] = test system: Listeria monocytogenes 10403S; details: for antibacterial activity/MIC: L. monocytogenes
Protocol: (§2) Third, 1 was subjected to five pathogenic Gram-positive bacteria.
(§3) Evaluation of antibacterial spectra of purified peptides. The MIC assay was performed according to the Clinical and Laboratory Standards Institute protocols. The antibacterial activities of the purified peptides A1, B01–B04, B11–B13, B21, and B22 were measured using the broth microdilution method. 6 Serial dilutions of the peptides were prepared in cation adjusted Mueller Hinton Broth. Each dilution (100 µL) was dispensed to each well of the round-bottom plate to obtain final concentrations ranging from 64 µg/mL to 0.00024 µg/mL. Bacteria were grown at 37 °C overnight on Tryptic Soy Broth or Mueller Hinton Broth agar plates.
(§4) The bacterial colonies were suspended in 0.9% saline to obtain OD 625 of 0.08–0.13 using a spectrophotometer UV-1280 (Shimadzu). The resultant suspension was diluted with cation adjusted Mueller Hinton Broth (1/20). The resultant mixture (10 .0 µL) was inoculated to each well of the plates (approximately 5 × 10^4 CFU/well), mixed, and incubated at 37 °C for 18–24 h. The MIC value was determined as the minimum concentration that inhibited growth of bacteria. For Streptococcus species, cation adjusted Mueller Hinton Broth supplemented with 5% laked horse blood was used. […]

[2] = test system: Enterococcus faecalis JCM5803; details: for antibacterial activity/MIC: E. faecalis; for Antibacterial activity MIC: JCM5803
Protocol: as §2, §3, §4

[3] = test system: Streptococcus pneumoniae NBRC 102642; details: for Antibacterial activity MIC: NBRC 102642; for antibacterial activity/MIC: S. pneumoniae
Protocol: as §2, §3, §4

[4] = test system: Streptococcus pyogenes SSI-9; details: for antibacterial activity/MIC: S. pyogenes; for Antibacterial activity MIC: SSI-9
Protocol: as §2, §3, §4

[5] = test system: Streptococcus agalactiae JCM5671; details: for Antibacterial activity MIC: JCM5671; for antibacterial activity/MIC: S. agalactiae
Protocol: as §2, §3, §4

[6] = test system: MSSA1 (methicillin-susceptible Staphylococcus aureus); type: cell-based
Protocol: as §3, §4

[7] = H+/Na+ transport assay of purified peptides; details: for Supplementary Figure 5 dose-response value (H+/Na+ transport): three replicate lines
Protocol: First, we evaluated the ion channel function of 1 using liposomes. To mimic a negatively charged Gram-positive bacterial membrane, the liposomes were prepared as large unilamellar vesicles (LUVs) comprising a 19:1 mixture of egg yolk phosphatidylcholine (EYPC) and egg yolk phosphatidylglycerol (EYPG)[57]. Pyranine, a pH-dependent fluorescent dye[58], was encapsulated in the LUVs and a pH gradient was applied across the membrane. H^+/Na^+ transport induced by a peptide was monitored by changes in the fluorescence intensity of pyranine.

[8] = Protocol: as §1
Mammalian cytotoxicity assay of purified peptides.
B22 was diluted with the growth medium with 2% DMSO to various concentrations as 5-fold serial dilution.
The collected cells were resuspended into
the growth medium at 2 × 10^4 cells/mL. Aliquots of the former medium (2% DMSO, 100 µL) containing
peptides and the latter medium containing P388 cells (100 µL) were mixed in a 96-well cell culture plate
(TR5003, TrueLine). The final concentration of P388 cells and DMSO were 1 × 10^4 cells/mL and 1%,
respectively. […]
were determined by WST -1 assay. A solution of 1-methoxy PMS and WST-1 in the growth medium
(1-methoxy PMS 0.70 mg/mL in Milli-Q/WST-1 3.6 mg/mL in pH 7.4 HEPES buffer = 1/9) was added to
each well of the plate (20.0 µL/well). The cells were incubated for 4 h under atmosphere of 5% CO 2 at
37 °C. The absorbance of each well at 415 nm was measured using a Benchmark microplate reader
(Bio-Rad) or Thermo Scientifi c Multiskan GO (Thermo Fisher Scientific). The cytotoxicities of the purified
peptides were evaluated as IC 50 (nM) by means of three replicates. Sigmoidal curve fittings were performed

[9] = read-out: EC50, H+/Na+ transport assay, 1st experiment
[10] = read-out: EC50, H+/Na+ transport assay, 2nd experiment
[11] = read-out: EC50, H+/Na+ transport assay, 3rd experiment
[12] = read-out: H+/Na+ transport activity EC50, EYPC/EYPG (19:1) LUVs
[13] = read-out: H+/Na+ transport activity/EC50, mean ± SD of three independent experiments
[14] = IC50, mammalian cytotoxicity assay
[15] = cytotoxicity against P388 cells/IC50

Compound | Hemolytic activity HC10 (concentration causing 10% hemolysis) (rabbit red blood cells) [nM] | antibacterial activity/MIC [1] [µg/mL] | antibacterial activity/MIC [2] [µg/mL] | Antibacterial activity MIC [2] [µM] | Antibacterial activity MIC [3] [µM] | antibacterial activity/MIC [3] [µg/mL] | antibacterial activity/MIC [4] [µg/mL] | Antibacterial activity MIC [4] [µM] | Antibacterial activity MIC [5] [µM] | antibacterial activity/MIC [5] [µg/mL] | antibacterial activity/MIC [6] [µg/mL] | Supplementary Figure 5 dose-response value (H+/Na+ transport) ([7]; concentration 0.000512 nM) | Supplementary Figure 5 dose-response value (H+/Na+ transport) ([7]; concentration 0.00256 nM) | Supplementary Figure 5 dose-response value (H+/Na+ transport) ([7]; concentration 0.0128 nM) | Supplementary Figure 5 dose-response value (H+/Na+ transport) ([7]; concentration 0.064 nM) | Supplementary Figure 5 dose-response value (H+/Na+ transport) ([7]; concentration 0.32 nM) | Supplementary Figure 5 dose-response value (H+/Na+ transport) ([7]; concentration 1.6 nM) | Supplementary Figure 5 dose-response value (H+/Na+ transport) ([7]; concentration 8 nM) | Supplementary Figure 5 dose-response value (H+/Na+ transport) ([7]; concentration 40 nM) | Supplementary Figure 5 dose-response value (H+/Na+ transport) ([7]; concentration 200 nM) | other results
CC(C)C[C@@H](NC(=O)[C@H](C)NC(=O)CNC(=O)[C@@H](NC=O)C(C)C)C(=O)N[C@@H](C)C(=O)N[C@@H](C(=O)N[C@H](C(=O)N[C@@H](C(=O)N[C@@H](Cc1c[nH]c2ccccc12)C(=O)N[C@@H](C(=O)N[C@@H](Cc1c[nH]c2ccccc12)C(=O)N[C@H](CC(C)C)C(=O)N[C@@H](Cc1c[nH]c2ccccc12)C(=O)N[C@@H](C(=O)N[C@@H](Cc1c[nH]c2ccccc12)C(=O)NCCO)C(C)C)C(C)C)C(C)C)C(C)C)C(C)C [B04] (For-VGA[dL]A[dV]V[dV]W[dV]W[dL]W[dV]W-NHCH2CH2OH) | 1100 | 8 | 1 | 0.54 | 0.0084 | 0.016 | 0.063 | 0.034 | 4.3 | 8 | 32 | -0.2346 and 0.9427 and 1.027 | 1.3317 and 0.8542 and 1.548 | -1.2605 and 2.862 and -0.09432 | 5.945 and 3.111 and 2.028 | 10.5694 and 12.3828 and 8.56 | 26.4566 and 23.815 and 22.5252 | 54.4909 and 53.2036 and 54.0987 | 70.9935 and 73.4781 and 68.8062 | 73.8391 and 72.9169 and 76.5429 | Antibacterial activity MIC ([1]; 10403S): 4.3 µM; Supplementary Figure 5 dose-response value (H+/Na+ transport) ([7]; concentration 1000 nM): 75.0683 and 78.833 and 77.3632; Supplementary Figure 5 dose-response value (H+/Na+ transport) ([7]; concentration 5000 nM): 78.0479 and 76.1013 and 78.9016; EC50 [7, 9]: 3.43 nM; EC50 [7, 10]: 3.5 nM; EC50 [7, 11]: 4.18 nM; EC50 [7, 12]: 3.7 nM; EC50 [7, 13]: 3.71 ± 0.42 nM; IC50 ([8]; Cytotoxicity IC50): 41 nM; IC50 [8, 14]: 34.3 nM; IC50 [8, 15]: 40.6 ± 5.95 nM
CC(C)C[C@@H](NC(=O)[C@H](C)NC(=O)CNC(=O)[C@@H](NC=O)C(C)C)C(=O)N[C@@H](C)C(=O)N[C@H](CC(C)C)C(=O)N[C@H](C(=O)N[C@H](CC(C)C)C(=O)N[C@@H](Cc1c[nH]c2ccccc12)C(=O)N[C@H](CC(C)C)C(=O)N[C@@H](Cc1c[nH]c2ccccc12)C(=O)N[C@@H](C(=O)N[C@@H](Cc1c[nH]c2ccccc12)C(=O)N[C@@H](C(=O)N[C@@H](Cc1c[nH]c2ccccc12)C(=O)NCCO)C(C)C)[C@H](C)O)C(C)C [B11] (For-VGA[dL]A[dL]V[dL]W[dL]W[dT]W[dV]W-NHCH2CH2OH) | 910 | 4 | 2 | 1.1 | 0.017 | 0.031 | 0.5 | 0.27 | 8.5 | 16 | 8 | 2.871 and 2.386 and 5.02 | 3.181 and 2.224 and 1.333 | 4.586 and 1.99 and 1.993 | 7.716 and 4.162 and 7.014 | 12.4442 and 13.4783 and 13.1353 | 25.1993 and 24.5125 and 22.5261 | 38.4333 and 37.5732 and 33.164 | 66.9626 and 64.2822 and 61.6393 | 70.7655 and 66.8425 and 69.2783 | Supplementary Figure 5 dose-response value (H+/Na+ transport) ([7]; concentration 1000 nM): 70.5972 and 73.9169 and 73.5278; Supplementary Figure 5 dose-response value (H+/Na+ transport) ([7]; concentration 5000 nM): 72.3937 and 72.1348 and 73.2071; EC50 [7, 9]: 6.44 nM; EC50 [7, 10]: 2.58 nM; EC50 [7, 11]: 7.92 nM; EC50 [7, 12]: 5.7 nM; EC50 [7, 13]: 5.65 ± 2.76 nM; IC50 [8, 14]: 289 nM; IC50 [8, 15]: 250 ± 57.7 nM
